# Data reported in patent US11401278B2, “Macrocyclic indole derivatives” (The Broad Institute, Inc., priority 2017, dated 2022).
# Counter-ions that a name gives are not always drawn. Like-named read-outs stand apart in the source and are kept apart here.
# How the values were obtained:
# SUDHL10 [1] = test: Induction of cytotoxicity (Assay 6), SUDHL10; conditions: read-out: Cytotox SUDHL10 [M] (median) IC50, CellTiter-Glo, 5 hours, SUDHL10
# SUDHL10 [2] = test: Induction of caspase-3/7 activity (Assay 4), SUDHL10; assay type: cell-based; conditions: caspase-3/7 induction, median
# Method in brief: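 Caspase-3/7 activity measured by Caspase-Glo 3/7 luminescence in DLBCL cells after 3 h compound treatment at 37 °C. Medium-only background subtracted. EC50 fitted with C0 fixed at 1 and top set to the reference compound's plateau/max induction.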
# MCL-1 = MCL-1 (Homo sapiens (Human), UniProt Q07820, K194A/K197A/R201A); test: Protein-protein interaction assay MCL-1/Noxa BH3 peptide (MCL-1 assay, TR-FRET); assay type: binding; conditions: MBP-MCL-1 / Noxa BH3 peptide, median
# Chain of MCL-1 (Q07820 whole entry K194A/K197A/R201A, looked up, the tested form may be a part): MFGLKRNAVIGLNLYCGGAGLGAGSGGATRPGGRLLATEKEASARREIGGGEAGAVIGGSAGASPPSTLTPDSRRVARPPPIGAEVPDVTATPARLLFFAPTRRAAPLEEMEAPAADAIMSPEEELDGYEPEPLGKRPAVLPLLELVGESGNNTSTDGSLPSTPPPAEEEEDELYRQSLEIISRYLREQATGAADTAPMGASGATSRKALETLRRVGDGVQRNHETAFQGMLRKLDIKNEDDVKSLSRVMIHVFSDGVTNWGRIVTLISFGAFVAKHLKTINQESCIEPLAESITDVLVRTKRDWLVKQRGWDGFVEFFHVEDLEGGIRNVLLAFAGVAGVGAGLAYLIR
# Method in brief: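 MBP-fused MCL-1 (aa 173-329, 1 nM) was pre-incubated with compound for 10 min at 22° C, then biotinylated Noxa BH3 peptide (1 nM) was added with anti-MBP-Eu cryptate and streptavidin-XL665. Incubation was 1 h at 22° C, then overnight at 4° C, in Tris pH 7 buffer. The 665/620 nm ratio over 11 concentrations (0.1 nM-20 μM) gave IC50 by 4-parameter fit.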
# SUDHL5 = test: Induction of cytotoxicity (Assay 6), SUDHL5; conditions: read-out: Cytotox SUDHL5 [M] (median) IC50, CellTiter-Glo, 5 hours, SUDHL5
SMILES,"IC50 (SUDHL10 [1]; Homo sapiens, SU-DHL10, 5 h) [M]","EC50 (SUDHL10 [2]; Homo sapiens, SU-DHL10, 3 h) [nM]",IC50 (MCL-1) [nM],"IC50 (SUDHL5; Homo sapiens, SU-DHL-5, 5 h) [M]",IC50 (SUDHL10 [1]) [M],EC50 (SUDHL10 [2]; 3 hours) [nM],IC50 (SUDHL5) [M]
"CCc1c2c(nn1C)CN(C)S(=O)(=O)CCCn1c(C(=O)O)c(CCCOc3ccc(F)c4ccccc34)c3ccc(F)c-2c31 (racemic) [Example 35, (rac)-12-Ethyl-13-fluoro-1-(34(4-fluoronaphthalen-1-yl)oxy)propyl)-8,11-dimethyl-5,6,9,11-tetrahydro-4H,8H-pyrazolo[3′,4′:4,5][1]thia[2,8]diazacycloundecino[6,7,8-hi]indole-2-carboxylic acid 7,7-dioxide]",2.7e-06,2600,3.5,1.6e-06,,,
"Cc1c2c(nn1C)CN(C)S(=O)(=O)CCCn1c(C(=O)O)c(CCCOc3cccc4ccccc34)c3ccc(F)c-2c31 (racemic) [Example 26, (rac)-13-Fluoro-8,11,12-trimethyl-1-(3-(naphthalen-1-yloxy)propyl)-5,6,9,11-tetrahydro-4H,8H-pyrazolo[3′,4′:4,5][1]thia[2,8]diazacycloundecino[6,7,8-hi]indole-2-carboxylic acid 7,7-dioxide]",3.4e-06,3500,3.6,1.8e-06,,,
"CCc1c2c(nn1C)CN(CCCN1CCCC1)S(=O)(=O)CCCn1c(C(=O)O)c(CCCOc3cccc4ccccc34)c3cccc-2c31 (racemic) [Example 16, (rac)-12-Ethyl-11-methyl-1-(3-(naphthalen-1-yloxy)propyl)-8-(3-(pyrrolidin-1-yl)propyl)-5,6,9,11-tetrahydro-4H,8H-pyrazolo[3′,4′:4,5][1]thia[2,8]diazacycloundecino[6,7,8-hi]indole-2-carboxylic acid 7,7-dioxide]",> 3.3e-05,> 33000,5.7,3.2e-05,,,
"Cc1c2c(nn1C)CN(CCN1CCOCC1)S(=O)(=O)CCCn1c(C(=O)O)c(CCCOc3cccc4ccccc34)c3cccc-2c31 (single isomer, unassigned; enantiomer 2) [Example 3, 2,3-Dimethyl-14-[2-(morpholin-4-yl)ethyl]-7-{3-[(naphthalen-1-yl)oxy]propyl}-13,13-dioxo-10,11,12,13,14,15-hexahydro-2H-13λ^6-pyrazolo[3′,4′:4,5][1,2,8]thiadiazacycloundecino-[6,7,8-hi]indole-8-carboxylic acid-N-ethylethanamine salt (Enantiomer 2)]",,,270,,> 3.3e-05,> 33000,> 3.3e-05
"Cc1c2c(nn1C)CN(C1CC1)S(=O)(=O)CCCn1c(C(=O)O)c(CCCOc3cccc4ccccc34)c3ccc(Cl)c-2c31 [Example 40, (rac)-4-chloro-14-cyclopropyl-2,3-dimethyl-7-[3-(1-naphthyloxy)propyl]-11,12,14,15-tetrahydro-2H,10H-pyrazolo[3′,4′:4,5][1,2,8]thiadiazacycloundecino[6,7,8-hi]indole-8-carboxylic acid 13,13-dioxide]",,,2.1,,3.9e-06,3300,2e-06
"Cc1c2c(nn1C)CN(C)S(=O)(=O)CCCn1c(C(=O)O)c(CCCOc3cccc4ccccc34)c3ccc(Cl)c-2c31 (single isomer, unassigned; enantiomer 2) [Example 6, 4-Chloro-2,3,14-trimethyl-7-{3-[(naphthalen-1-yl)oxy]propyl}-13,13-dioxo-10,11,12,13,14,15-hexahydro-2H-13λ^6-pyrazolo[3′,4′:4,5][1,2,8]thiadiazacycloundecino[6,7,8-hi]indole-8-carboxylic acid-N-ethylethanamine salt (Enantiomer 2)]",,,11,,1.7e-05,14000,1.2e-05
"Cc1c2c(nn1C)CN(C1CC1)S(=O)(=O)CCCn1c(C(=O)O)c(CCCOc3cccc4cc(F)ccc34)c3ccc(Cl)c-2c31 (racemic) [Example 41, (rac)-4-chloro-14-cyclopropyl-7-{3-[(6-fluoro-1-naphthyl)oxy]propyl}-2,3-dimethyl-11,12,14,15-tetrahydro-2H,10H-pyrazolo[3′,4′:4,5][1,2,8]thiadiazacycloundecino[6,7,8-hi]indole-8-carboxylic acid 13,13-dioxide]",,,1.3,,1.7e-06,1600,9.7e-07
"CCc1c2c(nn1C)C(C)N(C)S(=O)(=O)CCCn1c(C(=O)O)c(CCCOc3cccc4ccccc34)c3cccc-2c31 (racemic) [Example 18, 12-Ethyl-8,9,11-trimethyl-1-(3-(naphthalen-1-yloxy)propyl)-5,6,9,11-tetrahydro-4H,8H-pyrazolo[3′,4′:4,5][1]thia[2,8]diazacycloundecino[6,7,8-hi]indole-2-carboxylic acid 7,7-dioxide (Mixture of Stereoisomers)]",9.2e-06,8400,7.8,3.5e-06,,,
"COc1ccc(CN2Cc3nn(C)c(C)c3-c3c(Cl)ccc4c(CCCOc5cccc6cc(F)ccc56)c(C(=O)O)n(c34)CCCS2(=O)=O)c(OC)c1 (racemic) [Example 49, (rac)-4-chloro-14-(2,4-dimethoxybenzyl)-7-{3-[(6-fluoro-1-naphthyl)oxy]propyl}-2,3-dimethyl-11,12,14,15-tetrahydro-2H,10H-pyrazolo[3′,4′:4,5][1,2,8]thiadiazacycloundecino[6,7,8-hi]indole-8-carboxylic acid 13,13-dioxide]",2.2e-07,270,3.2,1.8e-07,,,
"Cc1c2c(nn1C)CN(C)S(=O)(=O)CCCn1c(C(=O)O)c(CCCOc3ccc(F)c4ccccc34)c3ccc(F)c-2c31 [Example 30, (rac)-13-Fluoro-1-(34(4-fluoronaphthalen-1-yl)oxy)propyl)-8,11,12-trimethyl-5,6,9,11-tetrahydro-4H,8H-pyrazolo[3′,4′:4,5][1]thia[2,8]diazacycloundecino[6,7,8-hi]indole-2-carboxylic acid 7,7-dioxide]",4.4e-06,5600,5.1,1.7e-06,,,
"Cc1c2c(nn1C)C(CCN1CCOCC1)N(C)S(=O)(=O)CCCn1c(C(=O)O)c(CCCOc3cccc4cc(F)ccc34)c3ccc(Cl)c-2c31 (single isomer, unassigned; enantiomer 2) [Example 67, 4-chloro-7-{3-[(6-fluoronaphthalen-1-yl)oxy]propyl}-2,3,14-trimethyl-15-[2-(morpholin-4-yl)ethyl]-13,13-dioxo-10,11,12,13,14,15-hexahydro-2H-13lambda^6-pyrazolo[3′,4′:4,5][1,2,8]thiadiazacycloundecino[6,7,8-hi]indole-8-carboxylic acid (Enantiomer 2)]",,,0.4,,1.8e-08,12,9.8e-09
"CCc1c2c(nn1C)CN(C)S(=O)(=O)CCCn1c(C(=O)O)c(CCCOc3cc(C)c(Cl)c(C)c3)c3ccc(F)c-2c31 (racemic) [Example 33, (rac)-1-(3-(4-Chloro-3,5-dimethylphenoxy)propyl)-12-ethyl-13-fluoro-8,11-dimethyl-5,6,9,11-tetrahydro-4H,8H-pyrazolo[3′,4′:4,5][1]thia[2,8]diazacycloundecino[6,7,8-hi]indole-2-carboxylic acid 7,7-dioxide]",6.4e-06,5100,4.2,2.6e-06,,,
"Cc1c2c(nn1C)C(CCN1CCOCC1)N(C)S(=O)(=O)CCCn1c(C(=O)O)c(CCCOc3cccc4ccccc34)c3cccc-2c31 (single isomer, unassigned; enantiomer 2) [Example 46, 2,3,14-trimethyl-15-[2-(morpholin-4-yl)ethyl]-7-{3-[(naphthalen-1-yl)oxy]propyl}-13,13-dioxo-10,11,12,13,14,15-hexahydro-2H-13lambda^6-pyrazolo[3′,4′:4,5][1,2,8]thiadiazacycloundecino[6,7,8-hi]indole-8-carboxylic acid N-ethylethanamine Salt (Enantiomer 2)]",,,0.31,,6.1e-07,380,5e-07
"Cc1c2c(nn1C)CN(C)S(=O)(=O)CCCn1c(C(=O)O)c(CCCOc3cccc4cc(F)ccc34)c3ccc(F)c-2c31 (single isomer, unassigned; enantiomer 1) [Example 38, (−)-4-fluoro-7-{3-[(6-fluoronaphthalen-1-yl)oxy]propyl}-2,3,14-trimethyl-13,13-dioxo-10,11,12,13,14,15-hexahydro-2H-13lambda^6-pyrazolo[3′,4′:4,5][1,2,8]thiadiazacycloundecino-[6,7,8-hi]indole-8-carboxylic acid (Enantiomer 1)]",,,23,,2.1e-05,22000,1.7e-05
"CCc1c2c(nn1C)C(CCC1CCOCC1)N(C)S(=O)(=O)CCCn1c(C(=O)O)c(CCCOc3cccc4cc(F)ccc34)c3ccc(Cl)c-2c31 (single isomer, unassigned; enantiomer 3) [Example 63, (+)-4-chloro-3-ethyl-7-{3-[(6-fluoronaphthalen-1-yl)oxy]propyl}-2,14-dimethyl-15-[2-(oxan-4-yl)ethyl]-13,13-dioxo-10,11,12,13,14,15-hexahydro-2H-13lambda^6-pyrazolo[3′,4′:4,5][1,2,8]thiadiazacycloundecino[6,7,8-hi]indole-8-carboxylic acid (Enantiomer 3)]",,,1.1,,8.6e-08,42,4.5e-08
